The results in this text go back to patent publication US20050101574A1, “Parathyroid hormone production inhibitors containing vitamin d3 derivatives” (priority 2000, published 2005).

Data set [1] concerns intestinal calcium absorption. The experiment in a line: Calcium absorption activity of the intestinal canal (duodenum) of vitamin D deficient rats, inverted gut sac method. Further details: Intestinal calcium absorption: unit not given here. To be noted: for Intestinal calcium absorption: Table 4: vitamin D deficient rats, i.v., Time 8 hrs, mean ± standard error, n = 5; for intestinal calcium absorption promoting activity: 8 hours, vitamin D deficient rats. In kind it is in vivo, rat. The method, then:
(§1) The volume of administered solution was 2 mL/kg.
J. Physiol., vol.216, pp. 1351-1359, 1969.

For data set [2], the system named is calcium concentration in serum. To be noted: rat, in vivo.
Protocol: (§2) (1) Male Wistar rats of 4 weeks old were purchased from Japan SLC (SLC, Shizuoka prefecture). The rats were put into wire cages three for each cage and bred under the condition of 23±1° C. and 55±10% humidity by allowing the rats to free ingestion of a vitamin D deficient feed for animal breeding (Ca, 0.0036%; P, 0.3%; Harlan Teklad Research Diet, Madison, Wis., U.S.A.) and drinking water (well water treated with 0.4%±0.2 ppm hypochlorite) for 7 weeks. The number of animals were five for one group.
(§3) (2) As shown in the Table 2, the negative control group (Group 1) was administered with a solvent (5% ethanol/0.1% Triton X-100/physiological saline solution) and the positive control group (Group 2) was administered with 0.5 μg/kg of 1α,25-dihydroxyvitamin D3 by intravenous administration.
(§4) (2) As shown in the Table 3, the negative control group (Group 1) was administered with a solvent (5% ethanol/0.1% Triton X-100/physiological saline solution) and the positive control group (Group 2) was administered with 0.25 μg/kg of 1α,25-dihydroxyvitamin D3 by intravenous administration.
(§5) (2) As shown in the Table 4, the negative control group (Group 1) was administered with a solvent (5% ethanol/0.1% Triton X-100/physiological saline solution) and the positive control group (Group 2) was administered with 1α,25-dihydroxyvitamin D3 at a dose of 0.1 μg/kg, 0.5 μg/kg and 2.5 μg/kg by intravenous administration.
Data set [3] deals with PTH concentration in serum. The data set can be described thus: PTH concentration in serum of vitamin D deficient rats after intravenous administration (radioimmunoassay). In kind it is in vivo, rat. To be noted: for PTH conc.: mean ± standard error, n = 5. The method, then:
The number of animals were five for one group.
The volume of administered liquid was 2 mL/kg.
as §1

Data set [4] deals with calcium concentration in serum. The experiment in a line: Calcium concentration in serum of vitamin D deficient rats after intravenous administration (OCPC method). As to conditions: for Calcium conc. in serum: Table 4: vitamin D deficient rats; for Calcium conc. in serum / Calcium conc.: i.v., mean ± standard error, n = 5.
Protocol: as §2, §3, §4, §5
Where [5] appears, read: intravenous administration at a dose of 0.5 μg/kg, vitamin D deficient rats.

SMILES strings stand for the structures.

With `C=C1CC(CC(C)C2CCC3C(=CC=C4CC(O)CC(O)C4=C)CCCC32C)OC1=O` [Compound 11 (23S isomer), (23S)-25-dehydro-1α,25-dihydroxyvitamin D3-26,23-lactone], the Intestinal calcium absorption is 1.89 ± 0.04 in data set [1] (Administration Rate 10 (mg/kg)), 2.32 ± 0.21 in data set [1] (Administration Rate 50 (mg/kg)) and 2.53 ± 0.10 in data set [1] (Administration Rate 250 (mg/kg)). In addition, the “intestinal calcium absorption promoting activity” value is “weak” in data set [1] (administration dose of from 50 μg/kg to 250 μg/kg i.v.) and “absolutely unobservable” in data set [1] (dose of 10 μg/kg i.v.). Besides, the calcium metabolism activity entry in data set [2] is recorded as “absolutely unobservable”. Moreover, the PTH conc. in data set [3] (Table 2: vitamin D deficient rats, i.v., Administration Rate 50, Time 4 hrs) is reported as 354 ± 65 pg/ml serum; in data set [3] (Table 2: vitamin D deficient rats, i.v., Administration Rate 50, Time 8 hrs) it was 330 ± 72 pg/ml serum; in data set [3] (Table 2: vitamin D deficient rats, i.v., Administration Rate 50, Time 24 hrs), 319 ± 1 pg/ml serum; in data set [3] (Table 2: vitamin D deficient rats, i.v., Administration Rate 50, Time 48 hrs), 436 ± 51 pg/ml serum; in data set [3] (Table 2: vitamin D deficient rats, i.v., Administration Rate 50, Time 72 hrs), 528 ± 38 pg/ml serum; in data set [3] (Table 3: vitamin D deficient rats, i.v., Administration Rate 2, Time 8 hrs), 488 ± 47 pg/ml serum. For the same compound, the PTH conc. in data set [3] (Table 3: vitamin D deficient rats, i.v., Administration Rate 10, Time 8 hrs) came out at 385 ± 65 pg/ml serum; in data set [3] (Table 3: vitamin D deficient rats, i.v., Administration Rate 50, Time 8 hrs), 319 ± 56 pg/ml serum. In addition, the “PTH concentration in serum” value in data set [3] (intravenous administration at a dose of 10 μg/kg, vitamin D deficient rats (Example 1)) is on record as “significantly lowered”. The “time after administration of the lowest level of PTH concentration in serum” value in data set [3] (intravenous administration at a dose of 50 μg/kg, vitamin D deficient rats) turned out to be 24 h. Moreover, in data set [3] (ratio to 1α,25-dihydroxyvitamin D3, vitamin D deficient rats, i.v., 8 hours), the “serum PTH concentration lowering action relative to the action of 1α,25-dihydroxyvitamin D3” value is 1/12. In addition, the “effect on PTH concentration in serum versus serum calcium concentration (conclusion in words)” value in data set [3] (vitamin D deficient rats, Examples 1, 2 and 3) is recorded as “effective for lowering the PTH concentration in serum without changing the calcium concentration in serum”.

Take `C=C1/C(=C\C=C2/CCC[C@]3(C)[C@@H]([C@H](C)CCCC(C)(C)O)CC[C@@H]23)C[C@@H](O)C[C@@H]1O` [1α,25-dihydroxyvitamin D3]: the PTH conc. in data set [3] (Table 3: vitamin D deficient rats, i.v., Administration Rate 0.25, Time 8 hrs) came to 459 ± 14 pg/ml serum; in data set [3] (vitamin D deficient rats, i.v., Administration Rate 0.5, Time 4 hrs), 458 ± 38 pg/ml serum; in data set [3] (vitamin D deficient rats, i.v., Administration Rate 0.5, Time 8 hrs), 399 ± 2 pg/ml serum; in data set [3] (vitamin D deficient rats, i.v., Administration Rate 0.5, Time 24 hrs) it was 325 ± 31 pg/ml serum; in data set [3] (vitamin D deficient rats, i.v., Administration Rate 0.5, Time 48 hrs), 488 ± 43 pg/ml serum; in data set [3] (vitamin D deficient rats, i.v., Administration Rate 0.5, Time 72 hrs) it was 555 ± 67 pg/ml serum. Further, the “time after administration of the lowest level of PTH concentration in serum” value in data set [3] (setting [5]) stood at 24 h. Besides, the “Calcium conc. in serum” value is listed as 5.30 ± 0.10 mg/100 ml serum in data set [4] (Administration Rate 0.1 (mg/kg), Time 8 hrs); 5.90 ± 0.40 mg/100 ml serum in data set [4] (Administration Rate 0.5 (mg/kg), Time 8 hrs); 6.17 ± 0.07 mg/100 ml serum in data set [4] (Administration Rate 2.5 (mg/kg), Time 8 hrs). Moreover, the “time after administration of the maximum level of calcium concentration in serum” value in data set [4] (setting [5]) was determined as 8 h. In addition, the Calcium conc. in data set [4] (vitamin D deficient rats, Administration Rate 0.5 (mg/kg), Time 4 hrs) is 5.33 ± 0.09 mg/100 ml serum; in data set [4] (vitamin D deficient rats, Administration Rate 0.5 (mg/kg), Time 8 hrs), 6.00 ± 0.17 mg/100 ml serum; in data set [4] (vitamin D deficient rats, Administration Rate 0.5 (mg/kg), Time 24 hrs), 5.87 ± 0.22 mg/100 ml serum; in data set [4] (vitamin D deficient rats, Administration Rate 0.5 (mg/kg), Time 48 hrs), 5.48 ± 0.15 mg/100 ml serum; in data set [4] (vitamin D deficient rats, Administration Rate 0.5 (mg/kg), Time 72 hrs), 5.10 ± 0.18 mg/100 ml serum.
